This note sets out measurements from US6251900A, “Heterocyclic compounds and antitumor agent containing the same as active ingredient” (Zenyaku Kogyo Kabushiki Kaisha, priority 1997, dated 2001).

In the assay the test system is MCF-7 cells. Briefly: Growth inhibition of MCF-7 human breast cancer cells, 72 h culture (Test 1). The following applies: MCF7, 37° C., read-out: 50% Growth inhibition concentrations (GI50). The class given is cell-based. The protocol:
Used in the test were MCF-7 cells which were established from human breast cancer and were cultured routinely under the conditions of 37° C. and 5% CO2, in RPMI 1640 medium supplemented with 10% fetal calf serum, HEPES buffer solution (25 mM) and kanamycin (0.1 mg/ml). Single cell suspension was prepared by adding trypsin/EDTA to the medium so as to be adjusted to 4.0×10^4 cells/ml. Test compounds were dissolved or suspended in DMSO or RPMI 1640 medium at a concentration of 1.0×10^-4 -1.0×10^-9 M.
The cell suspension and the sample solution or suspension were filled in a 96-wells microplate at a rate of 0.1 ml of the former and 0.1 ml of the latter per well and cultured at 37° C. for 72 hours in 5% CO2.
50% Growth inhibition concentrations (GI50 μM) were calculated from growth inhibitions at various sample concentrations.

As for `C[C@@H]1OCCN(c2nc(N3CCOCC3)nc(-n3cnc4ccccc43)n2)[C@@H]1C` (relative stereo) [compound 7, 2-(benzimidazol-1-yl)-4-(cis-2,3-dimethylmorpholino)-6-morpholino-1,3,5-triazine], the GI50 is 1 µM.

For `C[C@@H]1CN(c2nc(N3CCO[C@@H](C)[C@H]3C)nc(-n3cnc4ccccc43)n2)C[C@H](C)O1` (relative stereo) [compound 8, 2-(benzimidazol-1-yl)-4-(cis-2,3-dimethylmorpholino)-6-(cis-2,6-dimethylmorpholino)-1,3,5-triazine], the GI50 was found to be 3.9 µM.

For `C[C@H]1CN(c2nc(N3CCOCC3)nc(-n3cnc4ccccc43)n2)C[C@H](C)O1` (relative stereo) [compound 14, 2-(benzimidazol-1-yl)-4-(trans-2,6-dimethylmorpholino)-6-morpholino-1,3,5-triazine], the GI50 is 2.3 µM.

`C[C@H]1CN(c2cc(N3CCOCC3)nc(-n3cnc4ccccc43)n2)C[C@H](C)O1` (relative stereo) [compound 20, 2-(benzimidazol-1-yl)-4-(trans-2,6-dimethylmorpholino)-6-morpholinopyrimidine]: the GI50 worked out at 2.8 µM.

Take `C[C@@H]1OCCN(c2cc(N3CCOCC3)nc(-n3cnc4ccccc43)n2)[C@@H]1C` (relative stereo) [compound 21, 2-(benzimidazol-1-yl)-4-(cis-2,3-dimethylmorpholino)-6-morpholinopyrimidine]: the GI50 was found to be 1.1 µM.

As for `c1ccc2c(c1)ncn2-c1nc(N2CCOCC2)nc(N2CCOCC2)n1` [compound 2, 2-(benzimidazol-1-yl)-4,6-dimorpholino-1,3,5-triazine], the GI50 worked out at 3.3 µM.

`Cc1nc2ccccc2n1-c1nc(N2CCOCC2)nc(N2CCOCC2)n1` [compound 3, 2-(2-methylbenzimidazol-1-yl)-4,6-dimorpholino-1,3,5-triazine]: the GI50 is 3.7 µM.

With `N#Cc1nc(N2CCOCC2)nc(-n2cnc3ccccc32)n1` [compound 4, 2-(benzimidazol-1-yl)-4-cyano-6-morpholino-1,3,5-triazine], the GI50 stood at 3.8 µM.

Consider `FC(F)(F)C1CN(c2nc(N3CCOCC3)nc(-n3cnc4ccccc43)n2)CCO1` (centres unmarked) [compound 6, 2-(benzimidazol-1-yl)-4-morpholino-6-(2-trifluoro-methylmorpholino)-1,3,5-triazine], for which the GI50 came to 7.2 µM.

In the case of `CCC1CN(c2nc(N3CCOCC3)nc(-n3cnc4ccccc43)n2)CCO1` (centres unmarked) [compound 12, 2-(benzimidazol-1-yl)-4-(2-ethylmorpholino)-6-morpholino-1,3,5-triazine], the GI50 worked out at 3.9 µM.

`CC1CN(c2nc(N3CCOCC3)nc(-n3cnc4ccccc43)n2)CCO1` (centres unmarked) [compound 16, 2-(benzimidazol-1-yl)-4-(2-methylmorpholino)-6-morpholino-1,3,5-triazine]: the GI50 was determined as 4.8 µM.

For the molecule `CC(C)(C)OC(=O)NCC1CN(c2nc(N3CCOCC3)nc(-n3cnc4ccccc43)n2)CCO1` (centres unmarked) [compound 18, 2-(benzimidazol-1-yl)-4-[2-(tert-butoxycarbonylamino-methyl)morpholino]-6-morpholino-1,3,5-triazine], the GI50 is 6.3 µM.

On to `c1ccc2c(c1)ncn2-c1nc(N2CCOCC2)cc(N2CCSCC2)n1` [compound 23, 2-(benzimidazol-1-yl)-4-morpholino-6-thiomorpholino-pyrimidine], for which the GI50 was 3.9 µM.

With `CC(C)(C)OC(=O)NCC1CN(c2cc(N3CCOCC3)nc(-n3cnc4ccccc43)n2)CCO1` (centres unmarked) [compound 25, 2-(benzimidazol-1-yl)-4-[2-(tert-butoxycarbonylamino-methyl)morpholino]-6-morpholinopyrimidine], the GI50 was found to be 4 µM.

Turning to `Cc1cc2ncn(-c3nc(N4CCOCC4)nc(N4CCOCC4)n3)c2cc1C` [compound 30, 2-(5,6-dimethylbenzimidazol-1-yl)-4,6-dimorpholino-1,3,5-triazine], the GI50 turned out to be 3.7 µM.

In the case of `CN(Cc1ccccc1)CC1CN(c2nc(N3CCOCC3)nc(-n3cnc4ccccc43)n2)CCO1` (centres unmarked) [compound 31, 2-(benzimidazol-1-yl)-4-[2-(N-benzyl-N-methylamino-methyl)morpholino]-6-morpholino-1,3,5-triazine], the GI50 came out at 6.8 µM.

Consider `FCC1CN(c2nc(N3CCOCC3)nc(-n3cnc4ccccc43)n2)CCO1` (centres unmarked) [compound 32, 2-(benzimidazol-1-yl)-4-(2-fluoromethylmorpholino)-6-morpholino-1,3,5-triazine], for which the GI50 was 3.9 µM.

For the molecule `Cc1nc2ccccc2n1-c1nc(N2CCOCC2)nc(N2C[C@@H](C)O[C@@H](C)C2)n1` [compound 33, 4-(cis-2,6-dimethylmorpholino)-2-(2-methylbenzimidazol-1-yl)-6-morpholino-1,3,5-triazine], the GI50 worked out at 3.2 µM.

Turning to `OCC1CN(c2nc(N3CCOCC3)nc(-n3cnc4ccccc43)n2)CCO1` (centres unmarked) [compound 34, 2-(benzimidazol-1-yl)-4-(2-hydroxymethylmorpholino)-6-morpholino-1,3,5-triazine], the GI50 was found to be 5.8 µM.

Regarding `OC1CCCN(c2nc(N3CCOCC3)nc(-n3cnc4ccccc43)n2)C1` (centres unmarked) [compound 36, 2-(benzimidazol-1-yl)-4-(3-hydroxypiperidino)-6-morpholino-1,3,5-triazine], the GI50 turned out to be 3.9 µM.

`CC(=O)OC1CCN(c2nc(N3CCOCC3)nc(-n3cnc4ccccc43)n2)CC1` [compound 38, 2-(4-acetoxypiperidino)-4-(benzimidazol-1-yl)-6-morpholino-1,3,5-triazine]: the GI50 worked out at 6.5 µM.

With `OCCN(CCO)c1nc(N2CCOCC2)nc(-n2cnc3ccccc32)n1` [compound 42, 2-(benzimidazol-1-yl)-4-[N,N-di(2-hydroxyethyl)amino]-6-morpholino-1,3,5-triazine], the GI50 was determined as 4.6 µM.

Take `c1ccc2c(c1)ncn2-c1nc(N2CCOCC2)cc(N2CCOCC2)n1` [compound 43, 2-(benzimidazol-1-yl)-4,6-dimorpholinopyrimidine]: the GI50 is 4.3 µM.

For `c1ccc2c(c1)ncn2-c1cc(N2CCOCC2)nc(-n2cnc3ccccc32)n1` [compound 44, 2,4-di(benzimidazol-1-yl)-6-morpholinopyrimidine], the GI50 is 3.1 µM.

As to `c1ccc2c(c1)ncn2-c1cc(N2CCOCC2)nc(N2CCOCC2)n1` [compound 45, 4-(benzimidazol-1-yl)-2,6-dimorpholinopyrimidine], the GI50 is 4.6 µM.

As for `c1ccc2c(c1)ncn2-c1cc(-n2cnc3ccccc32)nc(N2CCOCC2)n1` [compound 46, 4,6-di(benzimidazol-1-yl)-2-morpholinopyrimidine], the GI50 turned out to be 4.3 µM.

Consider `Brc1c(N2CCOCC2)nc(-n2cnc3ccccc32)nc1N1CCOCC1` [compound 47, 2-(benzimidazol-1-yl)-5-bromo-4,6-dimorpholinopyrimidine], for which the GI50 worked out at 3.6 µM.

For `c1ccc2c(c1)ncn2-c1nc(N2CCOCC2)nc(N2CCC3(CC2)OCCO3)n1` [compound 48, 2-(benzimidazol-1-yl)-4-[1,4-dioxa-8-azaspiro[4,5]decan-8-yl)-6-morpholino-1,3,5-triazine], the GI50 turned out to be 5 µM.

Take `CCN(CCN1CCOCC1)c1nc(N2CCOCC2)nc(-n2cnc3ccccc32)n1` [compound 49, 2-(benzimidazol-1-yl)-4-(N-ethyl-N-2-morpholinoethyl)amino-6-morpholino-1,3,5-triazine]: the GI50 amounted to 5 µM.
